The first experiment has as its target Tyrosine-protein kinase JAK1 (Homo sapiens, UniProt P23458). The experiment can be described thus: JAK1 Assay: As used herein, a selective JAK1 inhibitor is an inhibitor of JAK1 which is selective for JAK1 over JAK2, JAK3 and TYK2. In some embodiments, the compounds or salts are about 10-fold more selective for JAK1 over JAK2. In some embodiments, the compounds or salts are about 10-fold, about 15-fold, or about 20-fold more selective for JAK1 over JAK2 as calculated by measuring IC50 at 1 mM ….
Chain of Tyrosine-protein kinase JAK1 (P23458 whole entry): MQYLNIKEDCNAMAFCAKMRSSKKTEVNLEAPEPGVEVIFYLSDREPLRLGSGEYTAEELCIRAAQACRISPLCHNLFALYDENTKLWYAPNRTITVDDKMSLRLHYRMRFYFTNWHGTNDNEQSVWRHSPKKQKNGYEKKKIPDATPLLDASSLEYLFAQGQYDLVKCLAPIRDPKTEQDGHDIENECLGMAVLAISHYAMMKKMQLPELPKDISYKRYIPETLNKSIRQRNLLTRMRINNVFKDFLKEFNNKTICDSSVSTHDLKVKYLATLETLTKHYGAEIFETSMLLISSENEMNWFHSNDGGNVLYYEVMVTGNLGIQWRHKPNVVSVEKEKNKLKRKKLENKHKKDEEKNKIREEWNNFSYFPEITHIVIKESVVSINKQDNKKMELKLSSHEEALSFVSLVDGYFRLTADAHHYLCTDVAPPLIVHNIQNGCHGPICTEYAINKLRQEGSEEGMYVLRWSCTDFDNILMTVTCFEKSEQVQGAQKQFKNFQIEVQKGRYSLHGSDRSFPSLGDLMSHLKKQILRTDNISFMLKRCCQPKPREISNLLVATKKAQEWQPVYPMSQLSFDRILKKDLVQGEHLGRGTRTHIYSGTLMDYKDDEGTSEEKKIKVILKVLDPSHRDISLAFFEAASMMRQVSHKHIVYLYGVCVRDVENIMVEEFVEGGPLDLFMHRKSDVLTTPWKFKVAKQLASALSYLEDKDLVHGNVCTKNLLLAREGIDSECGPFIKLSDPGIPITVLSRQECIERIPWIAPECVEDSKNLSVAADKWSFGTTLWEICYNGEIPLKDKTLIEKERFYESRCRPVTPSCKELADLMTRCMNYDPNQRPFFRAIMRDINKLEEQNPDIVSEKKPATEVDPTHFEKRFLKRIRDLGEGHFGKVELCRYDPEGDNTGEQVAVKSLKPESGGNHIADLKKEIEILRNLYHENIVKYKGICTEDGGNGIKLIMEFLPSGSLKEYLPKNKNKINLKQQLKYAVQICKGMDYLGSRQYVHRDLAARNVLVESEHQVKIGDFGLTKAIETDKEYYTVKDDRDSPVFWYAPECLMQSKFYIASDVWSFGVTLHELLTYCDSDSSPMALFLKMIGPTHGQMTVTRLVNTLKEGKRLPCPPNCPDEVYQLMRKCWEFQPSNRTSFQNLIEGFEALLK
Take `N#CCC1(n2cc(-c3ncnc4[nH]ccc34)cn2)CN(C2CCN(C(=O)Nc3ccc(F)cc3C(F)(F)F)CC2)C1`: the half-maximal inhibitory concentration (IC50) (commonly the concentration that inhibits the measured activity by half) was below 10 nM.
On the same count and under the same terms, the same measure for `N#CCC1(n2cc(-c3ncnc4[nH]ccc34)cn2)CN(C2CCN(C(=O)c3ccnc(C(F)(F)F)n3)CC2)C1`: below 10 nM; for `N#CC[C@]1(n2cc(-c3ncnc4[nH]ccc34)cn2)C[C@H](N2CCC(Oc3cc(CN4CC(O)C4)cc(C(F)(F)F)n3)CC2)C1`: below 10 nM.
In the case of `N#CCC(C1CCN(c2nc3cccnc3o2)C1)n1cc(-c2ncnc3[nH]ccc23)cn1` (stereo unspecified), the IC50 is below 10 nM.
Same read-out and setting: the same measure for `N#CC[C@]1(n2cc(-c3ncnc4[nH]ccc34)cn2)C[C@H](N2CCN(C(=O)c3ccnc(C(F)(F)F)n3)CC2)C1`: below 10 nM.
Consider `CCNCc1cc(O[C@H]2CC[C@@H](N3CC(CC#N)(n4cc(-c5ncnc6[nH]ccc56)cn4)C3)CC2)nc(C(F)(F)F)c1`, for which the half-maximal inhibitory concentration (IC50) is below 10 nM.
Regarding `C[C@H](O)CNCc1cc(OC2CCN([C@H]3C[C@](CC#N)(n4cc(-c5ncnc6[nH]ccc56)cn4)C3)CC2)nc(C(F)(F)F)c1`, the IC50 is below 10 nM.
On the same count and under the same terms, the same measure for `N#CCC(CN1CCN(C(=O)c2ccc(C#N)cc2F)CC1)n1ccc(-c2ncnc3[nH]ccc23)c1` (stereo unspecified): below 10 nM; for `N#CCC1(n2cc(-c3ncnc4[nH]ccc34)cn2)CN([C@H]2CC[C@@H](Oc3cc(CCO)nc(C(F)(F)F)n3)CC2)C1`: below 10 nM.
With `N#CC[C@]1(n2cc(-c3ncnc4[nH]ccc34)cn2)C[C@H](N2CCC(Oc3cc(CCO)cc(C(F)(F)F)n3)CC2)C1`, the half-maximal inhibitory concentration (IC50) was below 10 nM.
As to `CC(C)(O)c1cc(O[C@H]2CC[C@@H](N3CC(CC#N)(n4cc(-c5ncnc6[nH]ccc56)cn4)C3)CC2)nc(C(F)(F)F)c1`, the 50% inhibitory concentration (IC50) was below 10 nM.
In the case of `C[C@@H](CO)NCc1cc(OC2CCN([C@H]3C[C@](CC#N)(n4cc(-c5ncnc6[nH]ccc56)cn4)C3)CC2)nc(C(F)(F)F)c1`, the IC50 was below 10 nM.
Take `C[C@@H](O)c1nc2cnc3ccsc3c2n1[C@H]1CC[C@H](CC#N)OC1`: the 50% inhibitory concentration (IC50) is below 100 nM.
In the case of `C[C@@H](O)CNCc1cc(OC2CCN([C@H]3C[C@](CC#N)(n4cc(-c5ncnc6[nH]ccc56)cn4)C3)CC2)nc(C(F)(F)F)c1`, the IC50 is below 10 nM.
Still for that read-out and setting: the same measure for `C[C@H](NC(=O)c1cc(F)c(N2CC(CC#N)(n3cc(-c4ncnc5[nH]ccc45)cn3)C2)cc1F)C(F)(F)F`: below 10 nM; for `N#CC[C@]1(n2cc(-c3ncnc4[nH]ccc34)cn2)C[C@H](N2CCC(Oc3cc(CN4CCC[C@H]4CO)cc(C(F)(F)F)n3)CC2)C1`: below 10 nM; for `N#CCC1(n2cc(-c3ncnc4[nH]ccc34)cn2)CN([C@H]2CC[C@@H](Oc3cc(CN4CC[C@@H](O)C4)cc(C(F)(F)F)n3)CC2)C1`: below 10 nM.
Take `N#CCC1(n2cc(-c3ncnc4[nH]ccc34)cn2)CN([C@H]2CC[C@@H](Oc3cc(CN4CC[C@H](O)C4)cc(C(F)(F)F)n3)CC2)C1` (single isomer, unassigned): the IC50 was below 10 nM.
For the compound `N#CCC(C1CCN(c2cccc(Cl)n2)C1)n1cc(-c2ncnc3[nH]ccc23)cn1` (single isomer, unassigned), the IC50 is below 10 nM.
Still for that read-out and setting: the same measure for `N#CCC1(n2cc(-c3ncnc4[nH]ccc34)cn2)CN(C2CCN(C(=O)c3ccnc(C(F)(F)F)c3F)CC2)C1` [ITACITINIB]: below 10 nM.

Another experiment deals with T1, Phosphatidylinositol 4,5-bisphosphate 3-kinase catalytic subunit delta isoform (Homo sapiens, UniProt O00329).
T1 sequence (O00329 whole entry): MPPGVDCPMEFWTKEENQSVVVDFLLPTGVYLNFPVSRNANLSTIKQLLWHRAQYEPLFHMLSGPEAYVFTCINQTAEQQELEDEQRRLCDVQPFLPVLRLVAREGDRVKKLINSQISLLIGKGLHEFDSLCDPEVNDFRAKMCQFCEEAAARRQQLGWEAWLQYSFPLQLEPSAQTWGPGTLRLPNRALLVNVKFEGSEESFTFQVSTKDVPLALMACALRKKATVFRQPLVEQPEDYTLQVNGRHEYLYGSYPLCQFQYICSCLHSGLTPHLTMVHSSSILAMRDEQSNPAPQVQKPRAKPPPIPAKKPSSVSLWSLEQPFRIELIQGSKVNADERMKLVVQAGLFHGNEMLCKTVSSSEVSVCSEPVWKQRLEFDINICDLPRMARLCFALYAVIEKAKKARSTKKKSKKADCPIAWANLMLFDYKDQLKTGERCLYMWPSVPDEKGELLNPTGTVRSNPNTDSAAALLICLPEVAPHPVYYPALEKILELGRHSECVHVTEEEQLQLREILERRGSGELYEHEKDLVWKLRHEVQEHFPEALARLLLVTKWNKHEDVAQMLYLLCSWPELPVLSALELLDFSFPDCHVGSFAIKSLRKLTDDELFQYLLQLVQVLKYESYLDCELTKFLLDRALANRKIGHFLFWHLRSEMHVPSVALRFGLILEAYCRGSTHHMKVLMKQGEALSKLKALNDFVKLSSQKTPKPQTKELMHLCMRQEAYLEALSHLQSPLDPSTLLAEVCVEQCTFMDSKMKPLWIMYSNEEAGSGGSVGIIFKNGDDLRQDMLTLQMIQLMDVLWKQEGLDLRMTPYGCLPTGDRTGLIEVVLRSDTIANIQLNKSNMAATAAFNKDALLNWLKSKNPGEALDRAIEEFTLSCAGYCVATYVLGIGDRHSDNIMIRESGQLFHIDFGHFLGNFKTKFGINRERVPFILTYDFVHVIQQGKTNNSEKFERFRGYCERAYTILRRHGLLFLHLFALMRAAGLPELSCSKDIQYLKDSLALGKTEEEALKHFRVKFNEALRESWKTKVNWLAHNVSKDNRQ
The experiment can be described thus: PI3K Delta Assay: In some embodiments, the PI3Kδ inhibitor is selective. By ¿selective¿ is meant that the compound binds to or inhibits a kinase with greater affinity or potency, respectively, compared to at least one other kinase. In some embodiments, the PI3Kδ inhibitors are selective inhibitors of PI3Kδ (e.g., over PI3Kα, PI3Kβ and PI3Kγ). In some embodiments, selectivity can be at least about 2-fold, 5-fold, 10-fold, at least about 20-fold, at least about 50-fold, at least about 100-fold, at least about 200-fold, at least about 500-fold or at least about 1000-fold. Selectivity can be measured by methods routine in the art. In some embodiments, selectivity can be tested at the Km ATP concentration of each enzyme. In some embodiments, the selectivity of compounds described herein can be determined by cellular assays associated with particular PI3K kinase activity.
In turn, `CCOc1c(C(C)n2nc(C)c3c(N)ncnc32)cc(C)c(C#N)c1-c1ccc(C(=O)N(C)C)nc1` (stereo unspecified) yielded an IC50 below 50 nM.

Values taken from ChEMBL document CHEMBL5725512, “Fused bicyclic 1,2,4-triazine compounds as TAM inhibitors” (2017).
